Laboratory results reported in patent publication US8729026B2, “Method for inhibiting autophagy of motor neurons” (China Medical University, priority 2012, dated 2014).

How the values were obtained:
NSCs (neural stem cells) = assay: Cellular experiment: H2O2-stimulated autophagy of NSCs, LC3-II by Western blotting; type: cell-based, mouse; settings: 10 μg/mL butylidenephthalide for 12 hours, then H2O2 (2500 μM/mL) for 12 hours
Method: Cellular experiment was performed by using NSCs (neural stem cells) which can differentiate into mouse motor neurons to imitate mouse motor neurons.
NSCs were incubated in a culture dish (10 cm in diameter). The cells were washed with PBS when grown to a density of 60% confluence, and treated with different concentrations of butylidenephthalide for 12 hours. The cells were then treated with H2O2 (2500 μM/mL) for 12 hours to stimulate the autophagy of cells. Then, the cells were collected and the proteins were extracted, and the protein expression level of LC3-II in NSC was analyzed by SDS-PAGE and Western blotting.

spinal motor neurons = assay: Histochemical staining (hematoxylin and eosin): count of spinal motor neurons of SOD1-G93A transgenic mice; type: in vivo, mouse; settings: spinal cord, mice sacrificed in extremis, oral 500 mg/kg-body weight once daily
Method: SOD1-G93A transgenic mice (60-day-old) were treated with butylidenephthalide by oral administration, with a dosage of 500 mg/kg-body weight once daily. The SOD1-G93A transgenic mice in the experimental group were sacrificed in extremis, and the spinal cord was collected to perform hematoxylin and eosin stain. The number of motor neurons in the spinal cord was observed and counted by using a microscope, and the data was compared with that of the untreated control group.

[1] = Phase I metabolism assay, human hepatic microsomes, LC-MS/MS metabolite identification; type: in vitro ADME; settings: butylidenephthalide 2 mM, human hepatic microsomes 0.5 mg/mL, NADPH, 37° C., 60 minutes
Excerpt: (§1) It has been known that the medicine metabolic pathway within an organism's liver can be primarily divided into phase I and phase II metabolism. Phase I metabolism occurs mainly by the redox reaction or hydrolysis reaction of medicine, and phase II metabolism occurs mainly by […]. This example simulated the phase I and II metabolism of butylidenephthalide that occur within an organism's liver by respectively mixing butylidenephthalide with hepatic microsomes or cryopreserved hepatocytes in vitro, and the products in the reaction solution were analyzed by liquid chromatograph-tandem mass spectrometer (LC-MS/MS) to identify the metabolites and the metabolic profile. The experimental steps were as follows:
(§2) Butylidenephthalide (2 mM) was mixed respectively with K3PO4 buffer solution (100 mM, pH7.4) containing human, rats or dogs hepatic micrsomes (0.5 mg/mL). The mixture was maintained at 37° C. for 10 minutes, and then pre-warmed cofactors (NADPH (2 mM) and MgCl2 (3 mM)) were added thereto and the mixture was incubated at 37° C. for 60 minutes. Thereafter, 3-fold volume of acetonitrile containing 0.1% formic acid was added to the mixture to terminate the reaction. The mixture was centrifuged at 13000 rpm for 5 minutes, and the supernatant was then collected and analyzed by LC-MS/MS to identify the metabolites. […]

LC3-II = assay: Western blotting of autophagy biomarker LC3-II in spinal cord of SOD1-G93A transgenic mice; type: in vivo, mouse; settings: compared with untreated control; oral 500 mg/kg-body weight once daily, sacrificed in extremis; β-actin internal control
Method: SOD1-G93A transgenic mice (60-day-old) were treated with butylidenephthalide by oral administration, with a dosage of 500 mg/kg-body weight once daily. It has been indicated by research that SOD1-G93A transgenic mice lost its spinal motor neurons because of the significant increase of autophagy during the last phase of amyotrophic lateral sclerosis (which can be seen in In vivo optical imaging of motor neuron autophagy in a mouse model of amyotrophic lateral sclerosis. Autophagy 7:9, 1-8; September 2011, which is entirely incorporated hereinto by reference). Therefore, in this example, the SOD1-G93A transgenic mice in experimental group were sacrificed in extremis to collect their spinal cord, and the proteins were extracted from the spinal cord to perform Western blotting and to analyze the protein biomarker of autophagy, LC3-II, which was used to determine whether autophagy occurred in the lumbar spinal motor neurons of the mice, wherein β-actin was used as an internal control.

[2] = tested on: SOD1-G93A transgenic mice; assay: BBB Locomotor Rating Scale of hind limbs of SOD1-G93A transgenic mice; type: in vivo, mouse; settings: oral, 500 mg/kg-body weight once daily from 60 days of age; normal mice 21 points
Method: SOD1-G93A transgenic mice (60-day-old) were treated with butylidenephthalide by oral administration, with a dosage of 500 mg/kg-body weight once daily. After the mice were treated for 30 days, the hind limbs of the mice were examined by BBB scale (Basso, Beattie, and Bresnahan (BBB) Locomotor Rating Scale). The BBB scale of the hind limbs of normal mice was 21 points, while the BBB scale of disease-progressed SOD1-G93A transgenic mice decreased from 21 to 0 points, wherein the lower scale represents a more severe action disorder in the mice. BBB scale is used to record the drug efficiency.

[3] = Phase I metabolism assay, dog hepatic microsomes, LC-MS/MS metabolite identification; type: in vitro ADME; settings: butylidenephthalide 2 mM, dog hepatic microsomes 0.5 mg/mL, NADPH, 37° C., 60 minutes
Excerpt: as §1, §2

[4] = tested on: SOD1-G93A transgenic mice; assay: Survival of SOD1-G93A transgenic mice (amyotrophic lateral sclerosis model); type: in vivo, mouse; settings: 60-day-old SOD1-G93A transgenic mice, oral, 500 mg/kg-body weight once daily; for Survival days: n = 8, 500 mg/kg
Excerpt: It has been known that about 20% of amyotrophic lateral sclerosis patients were associated with mutations in the gene that encodes Cu/Zn superoxide dismutase enzyme (SOD1), and G93A was the major mutation site. […] A SOD1-G93A transgenic mouse will show the symptoms of amyotrophic lateral sclerosis within about 90±5 days postnatal and will die within about 125±5 days postnatal.
This example used the above SOD1-G93A transgenic mice as the object of study to perform in vivo analysis. SOD1-G93A transgenic mice (60-day-old) were treated with butylidenephthalide (purchased from ECHO Chemical) by oral administration, with a dosage of 500 mg/kg-body weight once daily, wherein the unit “mg/kg-body weight” means the dosage required per kg-body weight.

[5] = Phase II metabolism assay, human cryopreserved hepatocytes, LC-MS/MS metabolite identification; type: in vitro ADME; settings: butylidenephthalide 50 μM, 37° C., 6 hours
Excerpt: as §1
(§3) William's E medium containing 5×10^5 thawed human, rat or dog hepatocytes were respectively added into a 12-well culture dish, and the cells were cultured for 6 hours. Then, 0.5 mL of butylidenephthalide (50 μM) was added into the culture dish. After the cells were incubated at 37° C., 95% relative humidity and 5% CO2 for 6 hours, 2 mL of acetonitrile (100%) was added to terminate the reaction. The sample was collected, mixed adequately, and centrifuged at 45000 g, 4° C. for 10 minutes. The supernatant was then collected, dried, and analyzed by LC-MS/MS to identify the metabolites. […]

[6] = Phase I metabolism assay, rat hepatic microsomes, LC-MS/MS metabolite identification; type: in vitro ADME; settings: butylidenephthalide 2 mM, rat hepatic microsomes 0.5 mg/mL, NADPH, 37° C., 60 minutes
Excerpt: as §1, §2

[7] = Phase II metabolism assay, rat cryopreserved hepatocytes, LC-MS/MS metabolite identification; type: in vitro ADME; settings: butylidenephthalide 50 μM, 37° C., 6 hours
Excerpt: as §1, §3

[8] = Phase II metabolism assay, dog cryopreserved hepatocytes, LC-MS/MS metabolite identification; type: in vitro ADME; settings: butylidenephthalide 50 μM, 37° C., 6 hours
Excerpt: as §1, §3

For `CCCC=C1OC(=O)c2ccccc21` [butylidenephthalide], the “protein expression level of LC3-II in NSC” value (NSCs (neural stem cells)) was “decrease the protein expression level of LC3-II”, the “The number of motor neurons” value (spinal motor neurons; control group 3 ± 3.1) was 24 and the “The number of motor neurons” value (spinal motor neurons; control group 3 ± 3.1, listed as n-BP) was 24 ± 4.2. The “metabolites produced (phase I metabolism)” value [1] was “compounds (2) to (9)”, the “protein expression level of LC3-II and pLC3-II in cervical, thoracic and lumbar spinal cord” value (LC3-II) was “significantly decreased” and the “BBB scale of the hind limbs, after 135 days (decreased rapidly)” value [2] was 16 to 0 points. The “BBB scale of the hind limbs, from 125 to 135 days (decreased slowly)” value [2] was 21 to 16 points, the “metabolites produced (phase I metabolism)” value [3] was “compounds (2) to (9)” and the “life lengthened as compared to untreated control group” value [4] was “about 22±2 days”. The Survival days [4] was “about 149±4.39 days”, the Survival days ([4]; listed as n-BP) was 149 ± 4.39 days and the “metabolites produced (phase II metabolism)” value [5] was “compounds (11) to (14)”. The “metabolites produced (phase I metabolism)” value [6] was “compounds (2) to (9)”, the “metabolites produced (phase II metabolism)” value [7] was “compounds (11) to (14)” and the “metabolites produced (phase II metabolism)” value [8] was “compounds (11) to (14)”.
